One test has as its target T1, Taq polymerase (Thermus aquaticus, UniProt P19821).
T1 construct: purchased New England Biolabs, Ipswich, MA
Briefly: qPCR (GAPDH detection) with dye added directly into the qPCR reaction. Type of test: biochemical. The settings on record: increasing dye in the qPCR reaction, final concentration 0.004%, 0.008%, 0.012%, 0.016%, 0.023%; Jurkat total RNA template. Here is the method:
Dyes at a concentration of 0.0003% in a qPCR mix were found not to inhibit Taq polymerase in a qPCR mix in a manner that was detrimental to the reaction. 5-log dilutions of Jurkat total RNA (1 ug, 100 ng, 10 ng, 1 ng, 100 pg) were used as the template RNA for cDNA synthesis using a commercially available thermostable reverse transcriptase (Luna RT). […] 10 minutes, and 95° C. 1 minute. 1 ul cDNA library was added to a qPCR reaction mixture containing Taq polymerase (Luna® Universal qPCR Master Mix (New England Biolabs, Ipswich, MA)) and specific primers were added to detect glyceraldehyde 3-phosphate dehydrogenase (GAPDH) in the presence of xylene cyanol at a final concentration of 0%, 0.004%, 0.008%, 0.012%, 0.016%, or 0.023%, or Xylene cyanol and tartrazine both in the concentration range described above.
On the technique in general: In qPCR the cycle at which signal appears reflects the starting amount.

The test system of test [1] is reverse transcriptase (Luna RT). The experiment in a line: cDNA synthesis with dye in the cDNA reaction, read out by qPCR (GAPDH). Type of test: biochemical. The settings on record: increasing dye in the cDNA reaction, final concentration 0.004%, 0.008%, 0.012%, 0.016%, 0.023%; Jurkat total RNA template. Here is the method: 5-log dilutions of Jurkat total RNA (1 ug, 100 ng, 10 ng, 1 ng, 100 pg) were used as the template RNA for cDNA synthesis using Luna RT in the presence of xylene cyanol at a final concentration of 0%, 0.004%, 0.008%, 0.012%, 0.016%, or 0.023%, or Xylene cyanol and tartrazine both in the concentration range described above. […] 10 minutes, and 95° C. 1 minute. 1 ul cDNA library was added to a qPCR reaction mixture containing Taq polymerase and specific primers were added to detect GAPDH.

These results are taken from patent US12037612B2, “High throughput reaction assembly” (priority 2018, dated 2024).

Molecules are shown by their SMILES.

T1 sequence (P19821 whole entry): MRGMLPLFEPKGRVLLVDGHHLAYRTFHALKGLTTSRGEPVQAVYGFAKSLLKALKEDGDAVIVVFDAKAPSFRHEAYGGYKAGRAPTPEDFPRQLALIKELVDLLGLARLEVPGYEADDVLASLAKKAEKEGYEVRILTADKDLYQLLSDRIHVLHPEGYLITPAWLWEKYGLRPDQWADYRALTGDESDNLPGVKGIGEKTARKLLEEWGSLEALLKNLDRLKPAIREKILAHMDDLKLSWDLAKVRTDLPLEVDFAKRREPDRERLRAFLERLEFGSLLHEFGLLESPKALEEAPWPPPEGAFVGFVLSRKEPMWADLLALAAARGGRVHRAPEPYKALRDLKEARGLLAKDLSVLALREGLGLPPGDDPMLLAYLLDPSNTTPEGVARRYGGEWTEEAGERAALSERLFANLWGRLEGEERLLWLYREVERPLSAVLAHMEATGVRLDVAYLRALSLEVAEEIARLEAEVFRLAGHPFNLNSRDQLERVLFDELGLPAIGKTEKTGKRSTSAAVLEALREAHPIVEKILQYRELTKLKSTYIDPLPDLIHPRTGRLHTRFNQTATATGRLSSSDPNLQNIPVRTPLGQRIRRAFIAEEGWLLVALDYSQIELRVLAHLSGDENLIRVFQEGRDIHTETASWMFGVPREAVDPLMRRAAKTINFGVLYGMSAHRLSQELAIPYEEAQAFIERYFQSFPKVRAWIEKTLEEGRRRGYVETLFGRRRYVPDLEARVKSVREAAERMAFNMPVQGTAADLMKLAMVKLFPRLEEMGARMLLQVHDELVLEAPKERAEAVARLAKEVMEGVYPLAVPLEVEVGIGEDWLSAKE

With `CCN=C1C=CC(=C(c2ccc(NCC)c(C)c2)c2ccc(S(=O)(=O)[O-])cc2S(=O)(=O)O)C=C1C.[Na+]` [xylene cyanol], the “Cq value in qPCR / inhibition of Taq polymerase” value on Taq polymerase is “higher Cq value, indicating stronger inhibition of Taq polymerase”. Further, in test [1], the “Cq value / inhibition of the reverse transcriptase” value is “did not change the Cq value, indicating that no detectable inhibition of the reverse transcriptase occurred”.
